Patent publication US9107926B2, “Mutant selectivity and combinations of a phosphoinositide 3-kinase inhibitor compound and chemotherapeutic agents for the treatment of cancer” (Genentech, Inc., priority 2012, dated 2015)

Legend:
AU565 = test: CellTiter-Glo cell proliferation assay; assay type: cell-based; details: Homo sapiens, Breast, HER2 Amplified
HCC-1143 = test: CellTiter-Glo cell proliferation assay; assay type: cell-based; details: Homo sapiens, HCC1143, Breast, WT
HCC-70 = test: CellTiter-Glo cell proliferation assay; assay type: cell-based; details: Homo sapiens, HCC70, Breast, PTEN
HCC1954 = test: CellTiter-Glo cell proliferation assay; assay type: cell-based; details: Homo sapiens, Breast, Kinase-HOM.1047H > L
Description: (§2) Cell Culture Medium: RPMI or DMEM high glucose, 10% Fetal Bovine Serum, 2 mM L-Glutamine, P/S. Incubate O/N (overnight) at 37° C., 5% CO2.
(§3) Drug Addition to Cells, Cell Plate (1:10 dilution): Add 6 μl of media+compound directly to cells (54 μl of media on the cells already). Incubate 3 days at 37° C., 5% CO2 in an incubator that will not be opened often.
(§4) Day 5—Develop Plates, Thaw Cell Titer Glo Buffer at room temperature: Remove Cell Plates from 37° C. and equilibrate to room temperature for about 30 minutes. Add Cell Titer-Glo® Buffer to Cell Titer-Glo® Substrate (bottle to bottle). Add 30 μl Cell Titer-Glo® Reagent (Promega cat.#G7572) to each well of cells. Place on plate shaker for about 30 minutes. Read luminescence on Analyst HT Plate Reader (half second per well).

HCC-1419 = test: CellTiter-Glo cell proliferation assay; assay type: cell-based; details: Homo sapiens, HCC1419, Breast, WT
HCC-2218 = test: CellTiter-Glo cell proliferation assay; assay type: cell-based; details: Homo sapiens, HCC2218, Breast, WT
LS-180 = test: CellTiter-Glo cell proliferation assay; assay type: cell-based; details: Homo sapiens, LS180, Colon, KRAS/HET.1047H > R
U87MG = test: CellTiter-Glo cell proliferation assay; assay type: cell-based; details: Homo sapiens, U-87 MG, Glioma, PTEN
G22 = test: CellTiter-Glo cell proliferation assay; assay type: cell-based; details: Glioma, PTEN
MO59K = test: CellTiter-Glo cell proliferation assay; assay type: cell-based; details: Glioma, PTEN/KRAS
MO59J = test: CellTiter-Glo cell proliferation assay; assay type: cell-based; details: Glioma, PTEN/KRAS
SF268 = test: CellTiter-Glo cell proliferation assay; assay type: cell-based; details: Homo sapiens, SF-268, Glioma, WT
H838 = test: CellTiter-Glo cell proliferation assay; assay type: cell-based; details: Homo sapiens, NCI-H838, Lung(NSCLC), WT
Description: as §2, §3, §4

LXFL-529 = test: CellTiter-Glo cell proliferation assay; assay type: cell-based; details: Homo sapiens, Lung(NSCLC), Helical-HET.542E > K
H358 = test: CellTiter-Glo cell proliferation assay; assay type: cell-based; details: Homo sapiens, NCI-H358, Lung(NSCLC), K-RAS
A549 = test: CellTiter-Glo cell proliferation assay; assay type: cell-based; details: Homo sapiens, Lung(NSCLC), K-RAS
H1781 = test: CellTiter-Glo cell proliferation assay; assay type: cell-based; details: NCI-H1781, Lung(NSCLC), PTEN
H1650 = test: CellTiter-Glo cell proliferation assay; assay type: cell-based; details: Homo sapiens, NCI-H1650, Lung(NSCLC), PTEN
H322 = test: CellTiter-Glo cell proliferation assay; assay type: cell-based; details: NCI-H322, Lung(NSCLC), WT
H1048 = test: CellTiter-Glo cell proliferation assay; assay type: cell-based; details: Homo sapiens, NCI-H1048, Lung(SC), Kinase-HET.1047H > R, HET.391I > M
C32 = test: CellTiter-Glo cell proliferation assay; assay type: cell-based; details: Homo sapiens, Melanoma, PTEN/B-Raf
Caov3 = test: CellTiter-Glo cell proliferation assay; assay type: cell-based; details: Homo sapiens, Caov-3, Ovarian, WT
TOV21GX1 = test: CellTiter-Glo cell proliferation assay; assay type: cell-based; details: Ovarian, PTEN/HET.1047H > Y
[1] = system: SW48 isogenic cells; parental and PIK3CA knock-in mutants E545K and H1047R; test: western blot of cell lysates after 18 hours of GDC-0032 exposure; assay type: cell-based; details: lysates collected 18 hours post dosing
[2] = system: HCC1954.x1 breast tumor xenografts; test: In vivo mouse tumor xenograft efficacy; set-up: species or system mice; details: for % TGI@ day 21: QD x 21, PO
Description: The term uL means microliter.
(§1) Xenografts were initiated with cancer cells. […] Volume was calculated using the formula: […]

[3] = system: 22RV1 prostate cancer tumor xenografts; test: In vivo mouse tumor xenograft efficacy; set-up: species or system mice; details: PO daily (QD), 24 days
Description: as §1

[4] = system: 537 MEL melanoma cancer tumor xenografts; test: In vivo mouse tumor xenograft efficacy; set-up: species or system mice; details: PO daily (QD), 21 days
Description: as §1

[5] = system: HM-7 colorectal cancer tumor xenografts; test: In vivo mouse tumor xenograft efficacy; set-up: species or system mice
Description: as §1

[6] = system: KPL4 breast tumor xenografts; test: In vivo mouse tumor xenograft efficacy; set-up: species or system mice
Description: as §1

[7] = system: MCF-7 neo/HER2 breast cancer tumor xenografts; test: In vivo mouse tumor xenograft efficacy; set-up: species or system mice; details: for % TGI@ day 21: QD
Description: as §1

[8] = system: NCI-H1975 non-small cell lung cancer (NSCLC) tumor xenografts; test: In vivo mouse tumor xenograft efficacy; set-up: species or system mice; details: PO daily (QD), 24 day treatment period; versus vehicle
Description: as §1

[9] = system: PC3 prostate cancer tumor xenografts; test: In vivo mouse tumor xenograft efficacy; set-up: species or system mice
Description: as §1

PI3K alpha E545K mutant = PI3K alpha E545K mutant (Homo sapiens, UniProt P42336, E545K); details: relative to PI3K alpha
PI3K alpha E545K mutant, sequence (P42336 whole entry E545K): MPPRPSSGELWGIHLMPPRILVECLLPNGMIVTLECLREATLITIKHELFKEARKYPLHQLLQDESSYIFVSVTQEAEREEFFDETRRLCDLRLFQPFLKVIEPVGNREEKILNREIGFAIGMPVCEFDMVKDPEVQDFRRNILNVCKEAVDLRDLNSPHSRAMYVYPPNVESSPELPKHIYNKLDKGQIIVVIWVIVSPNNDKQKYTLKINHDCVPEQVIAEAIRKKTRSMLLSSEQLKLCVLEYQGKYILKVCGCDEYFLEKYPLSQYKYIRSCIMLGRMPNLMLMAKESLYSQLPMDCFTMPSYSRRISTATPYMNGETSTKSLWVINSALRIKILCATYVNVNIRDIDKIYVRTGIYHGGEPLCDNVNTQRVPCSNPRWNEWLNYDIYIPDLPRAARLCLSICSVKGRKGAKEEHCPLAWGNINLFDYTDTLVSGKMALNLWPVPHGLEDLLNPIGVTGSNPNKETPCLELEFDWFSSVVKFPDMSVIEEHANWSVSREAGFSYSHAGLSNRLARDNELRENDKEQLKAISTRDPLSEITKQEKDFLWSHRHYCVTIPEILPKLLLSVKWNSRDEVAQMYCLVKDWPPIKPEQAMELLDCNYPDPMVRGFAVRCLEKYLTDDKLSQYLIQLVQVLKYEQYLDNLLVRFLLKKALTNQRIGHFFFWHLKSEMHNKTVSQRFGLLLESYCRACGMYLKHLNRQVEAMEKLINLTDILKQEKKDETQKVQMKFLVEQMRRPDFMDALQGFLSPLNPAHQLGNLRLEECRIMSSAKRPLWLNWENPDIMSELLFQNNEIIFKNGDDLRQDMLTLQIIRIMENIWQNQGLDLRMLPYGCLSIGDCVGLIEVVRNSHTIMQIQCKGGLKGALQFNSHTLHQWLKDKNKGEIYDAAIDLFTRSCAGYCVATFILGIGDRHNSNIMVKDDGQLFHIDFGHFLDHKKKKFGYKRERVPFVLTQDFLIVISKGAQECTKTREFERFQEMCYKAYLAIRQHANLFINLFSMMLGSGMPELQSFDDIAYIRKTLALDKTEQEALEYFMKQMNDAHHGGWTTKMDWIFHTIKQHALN
PI3K alpha E545K mutant, sequence (P27986 whole entry partner): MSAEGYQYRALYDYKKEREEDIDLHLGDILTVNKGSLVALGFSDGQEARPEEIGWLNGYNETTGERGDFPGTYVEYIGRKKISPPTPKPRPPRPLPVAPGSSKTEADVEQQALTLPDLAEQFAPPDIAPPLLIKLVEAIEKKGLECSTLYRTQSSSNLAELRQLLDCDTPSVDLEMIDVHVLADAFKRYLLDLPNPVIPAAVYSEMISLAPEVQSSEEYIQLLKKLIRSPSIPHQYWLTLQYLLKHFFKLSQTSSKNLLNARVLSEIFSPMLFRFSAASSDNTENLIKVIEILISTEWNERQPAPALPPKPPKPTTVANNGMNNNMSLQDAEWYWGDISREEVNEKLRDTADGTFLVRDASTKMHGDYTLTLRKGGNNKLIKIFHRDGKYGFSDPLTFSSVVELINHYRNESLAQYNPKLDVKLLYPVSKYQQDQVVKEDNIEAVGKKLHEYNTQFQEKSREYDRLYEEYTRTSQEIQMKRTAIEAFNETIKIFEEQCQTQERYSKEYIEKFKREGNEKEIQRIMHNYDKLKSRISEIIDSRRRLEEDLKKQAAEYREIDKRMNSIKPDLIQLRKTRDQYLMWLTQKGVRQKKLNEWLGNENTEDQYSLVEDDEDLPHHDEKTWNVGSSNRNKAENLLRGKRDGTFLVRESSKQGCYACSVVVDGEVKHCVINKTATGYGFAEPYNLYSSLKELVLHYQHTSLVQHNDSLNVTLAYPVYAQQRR
Description: After an incubation time of 30 minutes at room temperature, the reactions were stopped by the addition of GRP-1 and PIP3-TAMRA probe (Echelon-Inc., Salt Lake City, Utah.) 100 nM and 5 nM final concentrations respectively. Read with standard cut-off filters for the rhodamine fluorophore (λex=530 nm; λem=590 nm) in 384-well black low volume Proxiplates® (PerkinElmer, Wellesley, Mass.) Fluorescence polarization values were plotted as a function of the protein concentration. EC50 values were obtained by fitting the data to a four-parameter equation using KaleidaGraph® software (Synergy software, Reading, Pa.). This experiment also establishes the appropriate protein concentration to use in subsequent competition experiments with inhibitors.
After an incubation time of 30 minutes at room temperature, the reactions were stopped by the addition of GRP-1 and PIP3-TAMRA probe (Echelon-Inc., Salt Lake City, Utah.) 100 nM and 5 nM final concentrations respectively.
The compound was serially diluted in 100% DMSO. The kinase reaction was incubated for 1 h at room temperature, and the reaction was terminated by the addition of PBS. IC50 values were subsequently determined using sigmoidal dose-response curve fit (variable slope).

[10] = system: SKOV3 ovarian tumor xenografts; test: In vivo mouse tumor xenograft efficacy; details: PO daily (QD), 21 day treatment period
[11] = system: SW48 PIK3CA H1047R knock-in mutant subclone; test: four day CellTiter-Glo viability assay, SW48 isogenic cell line set; details: Homo sapiens, SW48, 96 h, read-out: Viability EC50
Description: SW48 parental cells and knock-in mutant subclones harboring common PIK3CA hotspot mutations E545K or H1047R were obtained from Horizon Discovery.

## Cc1nc(-c2cn3c(n2)-c2ccc(-c4cnn(C(C)(C)C(N)=O)c4)cc2OCC3)n(C(C)C)n1 [GDC-0032, 2-(4-(2-(1-isopropyl-3-methyl-1H-1,2,4-triazol-5-yl)-5,6-dihydrobenzo[f]imidazo[1,2-d][1,4]oxazepin-9-yl)-1H-pyrazol-1-yl)-2-methylpropanamide]
AU565
  EC50: 0.093 µM
HCC-1143
  EC50: 2.97 µM
HCC-70
  EC50: 0.043 µM
HCC1954
  EC50: 0.102 µM
HCC-1419
  EC50: 0.046 µM
HCC-2218
  EC50: 0.09 µM
LS-180
  EC50: 0.795 µM
U87MG
  EC50: 1.02 µM
G22
  EC50: 6.02 µM
MO59K
  EC50: 4.98 µM
MO59J
  EC50: 5.65 µM
SF268
  EC50: 1.07 µM
H838
  EC50: 3.1 µM
LXFL-529
  EC50: 0.057 µM
H358
  EC50: 0.22 µM
A549
  EC50: 0.906 µM
H1781
  EC50: 0.561 µM
H1650
  EC50: 1.48 µM
H322
  EC50: 0.28 µM
H1048
  EC50: 0.014 µM
C32
  EC50: 5.81 µM
Caov3
  EC50: 4.79 µM
TOV21GX1
  EC50: 10 µM
[1]
  apoptosis induction (autoradiograms of lysates): induces apoptosis in cells harboring PI3K mutations at very low compound concentrations
[2]; 1.56 mg/kg
  % TGI@ day 21: 53%
[2]; 3.125 mg/kg
  % TGI@ day 21: 79%
[2]; 6.25 mg/kg
  % TGI@ day 21: 98%
[2]; 12.5 mg/kg
  % TGI@ day 21: 118%
[2]; 25 mg/kg
  % TGI@ day 21: 138%
[2]; daily dosing, end of dosing on day 21
  maximum TGI: 138%
[2]; doses of 12.5 and 25 mg/kg
  tumor response: Tumor regressions were observed
[3]
  tumor volume change: dose-dependent decrease in tumor volume
[4]
  tumor volume change: dose-dependent decrease in tumor volume
[5]; 25 mg/kg, end of treatment on day 7, versus vehicle
  tumor response: increased tumor regressions
[5]; PO daily (QD), 7 days
  tumor volume change: dose dependent decrease in tumor volume
[6]; 25 mg/kg, end of treatment on day 21, versus vehicle
  tumor response: increased tumor regressions
[6]; PO daily (QD), 21 days, SCID beige mice
  tumor volume change: dose dependent decrease in tumor volume
[7]; 22.5 mg/kg, after 10 days of treatment, versus vehicle
  tumor response: increased tumor regressions
[7]; PO daily (QD), 20 days, nude mice
  tumor volume change: dose dependent decrease in tumor volume
[7]; 5.0 mg/kg
  % TGI@ day 21: 57%
[7]; 10 mg/kg
  % TGI@ day 21: 83%
[7]; 20 mg/kg
  % TGI@ day 21: 83%
[8]
  tumor volume change: dose-dependent decrease in tumor volume
[9]; doses <12.5 mg/kg, daily dosing for 14 days
  anti-tumor efficacy: not efficacious
[9]; highest dose tested (25 mg/kg), daily, 14 days
  anti-tumor response: tumor stasis
PI3K alpha E545K mutant
  PI3K alpha E545K mutant: 0.4x
[10]
  tumor volume change: dose-dependent decrease in tumor volume
[11]
  EC50: 0.008 µM
